Measurements reported in the NIST ThermoML archive (doi:10.1021/je100801s).

How the values were obtained:
[1] = for Normal melting temperature: DTA
[2] = Molar enthalpy of transition or fusion; details: Crystal; DSC

NC(=O)c1cccc(F)c1 [3-fluorobenzamide]
[1]
Details	vapor or sublimation pressure [kPa]
323.1 K, Crystal, Calculated from knudsen effusion weight loss	9e-05
325.17 K, Crystal, Calculated from knudsen effusion weight loss	0.000114
327.18 K, Crystal, Calculated from knudsen effusion weight loss	0.000143
329.08 K, Crystal, Calculated from knudsen effusion weight loss	0.000183
331.13 K, Crystal, Calculated from knudsen effusion weight loss	0.000229
333.18 K, Crystal, Calculated from knudsen effusion weight loss	0.000286
336.83 K, Crystal, Closed cell (Static) method	0.00046
337.28 K, Crystal, Calculated from knudsen effusion weight loss	0.000461
339.17 K, Crystal, Calculated from knudsen effusion weight loss	0.000559
339.76 K, Crystal, Closed cell (Static) method	0.00063
341.08 K, Crystal, Calculated from knudsen effusion weight loss	0.000688
342.87 K, Crystal, Closed cell (Static) method	0.00089
343.13 K, Crystal, Calculated from knudsen effusion weight loss	0.000842
345.18 K, Crystal, Calculated from knudsen effusion weight loss	0.001032
345.87 K, Crystal, Closed cell (Static) method	0.0012
348.82 K, Crystal, Closed cell (Static) method	0.00166
351.66 K, Crystal, Closed cell (Static) method	0.00222
354.65 K, Crystal, Closed cell (Static) method	0.003
357.76 K, Crystal, Closed cell (Static) method	0.00407
360.59 K, Crystal, Closed cell (Static) method	0.00535
363.62 K, Crystal, Closed cell (Static) method	0.0071
366.55 K, Crystal, Closed cell (Static) method	0.00941
372.5 K, Crystal, Closed cell (Static) method	0.01592
375.47 K, Crystal, Closed cell (Static) method	0.02067
378.58 K, Crystal, Closed cell (Static) method	0.02712
382.58 K, Liquid, Closed cell (Static) method	0.0587
384.49 K, Crystal, Closed cell (Static) method	0.04471
387.47 K, Crystal, Closed cell (Static) method	0.05659
387.53 K, Liquid, Closed cell (Static) method	0.07955
390.45 K, Crystal, Closed cell (Static) method	0.07258
392.49 K, Liquid, Closed cell (Static) method	0.108
396.38 K, Crystal, Closed cell (Static) method	0.1148
397.43 K, Liquid, Closed cell (Static) method	0.1444
402.37 K, Liquid, Closed cell (Static) method	0.1895
407.27 K, Liquid, Closed cell (Static) method	0.2514
412.23 K, Liquid, Closed cell (Static) method	0.3264
417.16 K, Liquid, Closed cell (Static) method	0.4262
422.04 K, Liquid, Closed cell (Static) method	0.5472
427.02 K, Liquid, Closed cell (Static) method	0.7039
432 K, Liquid, Closed cell (Static) method	0.9006

Details	Normal melting temperature [°C]
[1], Crystal	128.43

Details	Molar enthalpy of transition or fusion [kcal/mol]
[2]	5.14

NC(=O)c1ccc(F)cc1 [4-fluorobenzamide]
[1], Closed cell (Static) method
Details	vapor or sublimation pressure [kPa]
344.79 K, Crystal	0.0007
347.76 K, Crystal	0.00097
350.74 K, Crystal	0.0013
353.73 K, Crystal	0.00174
356.7 K, Crystal	0.00236
359.68 K, Crystal	0.00313
362.66 K, Crystal	0.0041
365.63 K, Crystal	0.00535
368.61 K, Crystal	0.00699
371.58 K, Crystal	0.009
374.54 K, Crystal	0.01167
377.53 K, Crystal	0.015
380.48 K, Crystal	0.01934
383.47 K, Crystal	0.02445
386.43 K, Crystal	0.03134
392.35 K, Crystal	0.04995
395.33 K, Crystal	0.06299
398.28 K, Crystal	0.07872
401.25 K, Crystal	0.09854
404.24 K, Crystal	0.1266
407.22 K, Crystal	0.1568
410.16 K, Crystal	0.1944
410.2 K, Liquid	0.2629
412.16 K, Liquid	0.2902
413.14 K, Crystal	0.2396
414.13 K, Liquid	0.3222
416.1 K, Crystal	0.2948
416.11 K, Liquid	0.3584
418.11 K, Liquid	0.3963
419.06 K, Crystal	0.3637
420.05 K, Liquid	0.4398
422.01 K, Crystal	0.4419
422.03 K, Liquid	0.4862
424.02 K, Liquid	0.5382
424.99 K, Crystal	0.538
426 K, Liquid	0.593
427.93 K, Liquid	0.6524
429.92 K, Liquid	0.719
431.89 K, Liquid	0.7879
433.87 K, Liquid	0.8708
435.84 K, Liquid	0.9508
437.82 K, Liquid	1.04

Details	Normal melting temperature [°C]
[1], Crystal	156.04

Details	Molar enthalpy of transition or fusion [kcal/mol]
[2]	4.66

NC(=O)c1ccccc1F [o-fluorobenzamide]
[1]
Details	vapor or sublimation pressure [kPa]
303.12 K, Crystal, Calculated from knudsen effusion weight loss	0.000102
305.21 K, Crystal, Calculated from knudsen effusion weight loss	0.00013
307.19 K, Crystal, Calculated from knudsen effusion weight loss	0.000166
309.12 K, Crystal, Calculated from knudsen effusion weight loss	0.000213
311.2 K, Crystal, Calculated from knudsen effusion weight loss	0.00027
313.29 K, Crystal, Calculated from knudsen effusion weight loss	0.000341
315.11 K, Crystal, Calculated from knudsen effusion weight loss	0.000429
317.2 K, Crystal, Calculated from knudsen effusion weight loss	0.00054
317.98 K, Crystal, Closed cell (Static) method	0.0006
319.18 K, Crystal, Calculated from knudsen effusion weight loss	0.000668
320.48 K, Crystal, Closed cell (Static) method	0.0008
321.11 K, Crystal, Calculated from knudsen effusion weight loss	0.000843
322.94 K, Crystal, Closed cell (Static) method	0.00105
323.18 K, Crystal, Calculated from knudsen effusion weight loss	0.001059
325.18 K, Crystal, Calculated from knudsen effusion weight loss	0.001295
325.41 K, Crystal, Closed cell (Static) method	0.00137
327.86 K, Crystal, Closed cell (Static) method	0.00175
330.38 K, Crystal, Closed cell (Static) method	0.00233
332.86 K, Crystal, Closed cell (Static) method	0.003
335.32 K, Crystal, Closed cell (Static) method	0.0038
337.75 K, Crystal, Closed cell (Static) method	0.00484
340.21 K, Crystal, Closed cell (Static) method	0.00617
342.7 K, Crystal, Closed cell (Static) method	0.00785
345.32 K, Crystal, Closed cell (Static) method	0.01002
350.2 K, Crystal, Closed cell (Static) method	0.01581
355.69 K, Crystal, Closed cell (Static) method	0.02544
357.75 K, Crystal, Closed cell (Static) method	0.03116
358.65 K, Liquid, Closed cell (Static) method	0.05979
360.13 K, Crystal, Closed cell (Static) method	0.03777
361.55 K, Liquid, Closed cell (Static) method	0.07225
362.71 K, Crystal, Closed cell (Static) method	0.04753
364.59 K, Liquid, Closed cell (Static) method	0.08814
365.1 K, Crystal, Closed cell (Static) method	0.05735
367.55 K, Liquid, Closed cell (Static) method	0.1048
370.04 K, Crystal, Closed cell (Static) method	0.08597
370.55 K, Liquid, Closed cell (Static) method	0.126
372.63 K, Crystal, Closed cell (Static) method	0.1058
375.47 K, Liquid, Closed cell (Static) method	0.1688
377.6 K, Crystal, Closed cell (Static) method	0.1572
380.43 K, Liquid, Closed cell (Static) method	0.225
385.38 K, Liquid, Closed cell (Static) method	0.2972
391.35 K, Liquid, Closed cell (Static) method	0.4081
394.82 K, Liquid, Closed cell (Static) method	0.4892
397.41 K, Liquid, Closed cell (Static) method	0.5572
399.81 K, Liquid, Closed cell (Static) method	0.6302
402.34 K, Liquid, Closed cell (Static) method	0.7124
404.79 K, Liquid, Closed cell (Static) method	0.8064
407.26 K, Liquid, Closed cell (Static) method	0.9115
409.66 K, Liquid, Closed cell (Static) method	1.024
412.16 K, Liquid, Closed cell (Static) method	1.147

Details	Normal melting temperature [°C]
[1], Crystal	115.34

Details	Molar enthalpy of transition or fusion [kcal/mol]
[2]	4.95
